Laboratory results reported in patent US20160346347A1 (Oculis ehf., priority 2015, published 2016).

Columns and labels:
[1] = type: physicochemical
Description: An excess amount of drug was added to aqueous solutions containing up to 20% (w/v) cyclodextrin. The solutions were sonicated at 40-50° C. for 45-60 minutes in sealed glass vials, and then allowed to cool to room temperature (22-23° C.). Small amount of solid drug was then added to each vial, the vial resealed and allowed to equilibrate under constant agitation and protected from light for 7 days at room temperature. When the solutions had reached equilibrium, they were filtered through a 0.45 μm membrane filter and analyzed by high pressure liquid chromatography. […] The complexation efficiency (CE) was determined from the slope of phase-solubility diagrams (plots of total solubility of the drug versus total CD concentration in mol/l) where S0 is the intrinsic solubility of the drug:
The mobile phase consisted of acetonitrile, methanol and water (60:20:20), the flow rate was 1 ml/min, the column oven temperature was 80° C. and the detection wavelength was 205 nm.

[2] = in water (β-cyclodextrin: pure water at room temperature); cited from earlier work

2-Hydroxypropyl-γ-cyclodextrin
CE (complexation efficiency) [1]: 0.0011 | Solubility in the presence of 5% (w/v) cyclodextrin [1]: 48 ± 4 µg/mL | Solubility in the presence of 15% (w/v) cyclodextrin [1]: 62 ± 5 µg/mL

OC[C@H]1O[C@@H]2O[C@H]3[C@H](O)[C@@H](O)[C@@H](O[C@H]4[C@H](O)[C@@H](O)[C@@H](O[C@H]5[C@H](O)[C@@H](O)[C@@H](O[C@H]6[C@H](O)[C@@H](O)[C@@H](O[C@H]7[C@H](O)[C@@H](O)[C@@H](O[C@H]8[C@H](O)[C@@H](O)[C@@H](O[C@H]9[C@H](O)[C@@H](O)[C@@H](O[C@H]1[C@H](O)[C@H]2O)O[C@@H]9CO)O[C@@H]8CO)O[C@@H]7CO)O[C@@H]6CO)O[C@@H]5CO)O[C@@H]4CO)O[C@@H]3CO [γ-Cyclodextrin]
aqueous solubility of the cyclodextrin [2]: 25 % (w/v) | CE (complexation efficiency) [1]: 0.0049 | Solubility in the presence of 5% (w/v) cyclodextrin [1]: 62 ± 0.6 µg/mL | Solubility in the presence of 15% (w/v) cyclodextrin [1]: 110 ± 1.5 µg/mL

OC[C@H]1O[C@@H]2O[C@H]3[C@H](O)[C@@H](O)[C@@H](O[C@H]4[C@H](O)[C@@H](O)[C@@H](O[C@H]5[C@H](O)[C@@H](O)[C@@H](O[C@H]6[C@H](O)[C@@H](O)[C@@H](O[C@H]7[C@H](O)[C@@H](O)[C@@H](O[C@H]8[C@H](O)[C@@H](O)[C@@H](O[C@H]1[C@H](O)[C@H]2O)O[C@@H]8CO)O[C@@H]7CO)O[C@@H]6CO)O[C@@H]5CO)O[C@@H]4CO)O[C@@H]3CO [β-Cyclodextrin]
aqueous solubility of the cyclodextrin [2]: 2 % (w/v) | CE (complexation efficiency) [1]: 0.030

OC[C@H]1O[C@@H]2O[C@H]3[C@H](O)[C@@H](O)[C@@H](O[C@H]4[C@H](O)[C@@H](O)[C@@H](O[C@H]5[C@H](O)[C@@H](O)[C@@H](O[C@H]6[C@H](O)[C@@H](O)[C@@H](O[C@H]7[C@H](O)[C@@H](O)[C@@H](O[C@H]1[C@H](O)[C@H]2O)O[C@@H]7CO)O[C@@H]6CO)O[C@@H]5CO)O[C@@H]4CO)O[C@@H]3CO [α-Cyclodextrin]
aqueous solubility of the cyclodextrin [2]: 13 % (w/v) | CE (complexation efficiency) [1]: 0.54 | Solubility in the presence of 5% (w/v) cyclodextrin [1]: 760 ± 16 µg/mL

2-Hydroxypropyl-α-cyclodextrin
CE (complexation efficiency) [1]: 0.031 | Solubility in the presence of 5% (w/v) cyclodextrin [1]: 84 µg/mL | Solubility in the presence of 15% (w/v) cyclodextrin [1]: 460 µg/mL

Randomly methylated β-cyclodextrin
CE (complexation efficiency) [1]: 0.053 | Solubility in the presence of 5% (w/v) cyclodextrin [1]: 130 µg/mL
